{"source": "patent US11162944B2", "about": "“Compositions and methods” (priority 2015, dated 2021)", "key": {"wild-type BMDCs": {"test_system": "wild-type BMDCs", "assay": "IL-6 secretion by bone marrow-derived dendritic cells, cytokine-specific ELISA", "assay_type": "cell-based, mice", "settings": "antigens at 100 μg/ml coated on plate, ISO as solvent, FIG. 1", "description": "The concentrations of cytokines in the cell-free medium from stimulation of bone marrow-derived dendritic cells were determined using standard cytokine-specific ELISA. BMDCs were generated from mice, by flushing out the femurs of mice into complete medium and pipetting vigorously to make a single-cell suspension. The glycolipids were coated to the bottom of 96 micro-well plates (100 μg/ml). BMDCs were added, and after 6 or 48 hours of incubation the supernatants were harvested.\nThe first experiment was the IL-6 secretion by wild-type BMDCs from mice using compounds B, D, C and H (shown below) as antigens at 100 μg/ml, and isopropyl alcohol (ISO) as a solvent. Commercial trehalose-6,6-dimycolate (TDM), lipopolysaccharides (LPS), and trehalose-6,6-dibehenate (TDB) were used as a controls."}, "[1]": {"test_system": "biomarker (antibody) in serum from patients with suspected TB (tuberculosis)", "assay": "ELISA of 64 serum samples on three synthetic antigens (Example 6)", "assay_type": "binding, human", "settings": "dilution 1 in 80", "description": "ELISA assays were carried out as known to those practiced in the art using 96 well plates. In the first procedure, the ELISA assay was carried out on 96-well microplates and the purified antigens were dissolved in n-hexane at a concentration of 62.5 μg/mL. The antigen solution was diluted and 50 μL was placed in each well. The plates were left to dry at room temperature overnight. Blocking was done with 0.5% casein/PBS (400 μL/well) and the plates were left to incubate at 25° C. for 1 h. The casein was aspirated using the LT-3500 plate washer and the plates flicked dry. Then the serum (1:20 dilution in 0.5% casein/PBS, pH 7.4) was added to the plate (50 μL/well) and left to incubate at 25° C. for 1 h. The serum was aspirated and washed three times with (casein/PBS, 400 μL/well) using the same plate washer and the plates were flicked dry again. After that, the secondary antibody, in the example given IgG Fc (1:1000 dilution in 0.5% casein/PBS) was added to the plate (50 μL/well) and the plates were left to incubate at 25° C. for 30 min. The plates were washed three times again with casein/PBS (400 μL/well) and dried. Then, the OPD substrate was added to the plates, which were left to incubate at 25° C. for 30 min. Finally, 2.5 M H2SO4 (50 μL/well) was added and the absorbances of each well were read at 492, 450 and 630 nm using an LT-4000 plate reader.\nHuman serum used in this work was from the WHO sample bank. In this case, all the patients had presented at a hospital with the symptoms of TB. Clinical diagnosis was made on the basis of a series of standard assays.\nAll measurements were taken as four replicates unless otherwise stated. These were averaged to provide the data in the tables which are for the value at 492 nm.\nA set of 64 samples of serum from patients attending a clinic with suspected TB (tuberculosis) in a high burden TB population was examined using ELISA. Samples 1-9 had been diagnosed as positive for infection with tuberculosis (TB+) on the basis of a range of assays including sputum smear and culture, and samples 10-64 as negative for infection with tuberculosis (TB−). An ELISA assay was carried out with three synthetic antigens having the structures:\nCut-off values were set to identify all the positive samples with all three antigens, and the false positives were then identified in Table 3. […] 53 of the 55 negatives were correctly identified giving a specificity of 96%. The shaded results denote a result which is above the cut-off set for that particular antigen assay."}}, "note": "Marks after values point to notes of the source that are not given here.", "data": [{"smiles": "CCCCCCCCCCCCCCCCCCCCCCCCC(C(=O)OCC1OC(OCC2OC(OC)C(O)C2OC2OC(COC(=O)C(CCCCCCCCCCCCCCCCCCCCCCCC)C(O)CCCCCCCCCCCC3CC3CCCCCCCCCCCCCCC3CC3CCCCCCCCCCCCCCCCCCCC)C(O)C2O)C(O)C1O)C(O)CCCCCCCCCCCC1CC1CCCCCCCCCCCCCCC1CC1CCCCCCCCCCCCCCCCCCCC", "note": "(centres unmarked) [H]", "values": [{"measurement": "IL-6 secretion by wild-type BMDCs", "setting": "wild-type BMDCs", "result": "good level of stimulation"}]}, {"smiles": "CCCCCCCCCCCCCCCCCCCCCCCC[C@@H](C(=O)OC[C@H]1O[C@H](OC)[C@@H](O)[C@@H]1O)[C@H](O)CCCCCCCCCCCC1CC1CCCCCCCCCCCCCC[C@H]1C[C@H]1CCCCCCCCCCCCCCCCCCCC", "note": "(some centres unmarked) [Antigen 3]", "values": [{"measurement": "ELISA absorbance at 492 nm", "setting": "[1]; sample 1 (TB+)", "result": "0.74*"}, {"measurement": "ELISA absorbance at 492 nm", "setting": "[1]; sample 2 (TB+)", "result": "0.76*"}, {"measurement": "ELISA absorbance at 492 nm", "setting": "[1]; sample 3 (TB+)", "result": "0.99*"}, {"measurement": "ELISA absorbance at 492 nm", "setting": "[1]; sample 4 (TB+)", "result": "0.97*"}, {"measurement": "ELISA absorbance at 492 nm", "setting": "[1]; sample 5 (TB+)", "result": "0.99*"}, {"measurement": "ELISA absorbance at 492 nm", "setting": "[1]; sample 6 (TB+)", "result": "1.39*"}, {"measurement": "ELISA absorbance at 492 nm", "setting": "[1]; sample 7 (TB+)", "result": "1.97*"}, {"measurement": "ELISA absorbance at 492 nm", "setting": "[1]; sample 8 (TB+)", "result": "1.67*"}, {"measurement": "ELISA absorbance at 492 nm", "setting": "[1]; sample 9 (TB+)", "result": "1.09*"}, {"measurement": "ELISA absorbance at 492 nm", "setting": "[1]; sample 10 (TB−)", "result": 0.59}, {"measurement": "ELISA absorbance at 492 nm", "setting": "[1]; sample 11 (TB−)", "result": "0.92*"}, {"measurement": "ELISA absorbance at 492 nm", "setting": "[1]; sample 12 (TB−)", "result": "0.84*"}, {"measurement": "ELISA absorbance at 492 nm", "setting": "[1]; sample 13 (TB−)", "result": 0.60}, {"measurement": "ELISA absorbance at 492 nm", "setting": "[1]; sample 14 (TB−)", "result": "1.30*"}, {"measurement": "ELISA absorbance at 492 nm", "setting": "[1]; sample 15 (TB−)", "result": 0.64}, {"measurement": "ELISA absorbance at 492 nm", "setting": "[1]; sample 16 (TB−)", "result": 0.56}, {"measurement": "ELISA absorbance at 492 nm", "setting": "[1]; sample 17 (TB−)", "result": "0.81*"}, {"measurement": "ELISA absorbance at 492 nm", "setting": "[1]; sample 18 (TB−)", "result": 0.68}, {"measurement": "ELISA absorbance at 492 nm", "setting": "[1]; sample 19 (TB−)", "result": "0.71*"}, {"measurement": "ELISA absorbance at 492 nm", "setting": "[1]; sample 20 (TB−)", "result": "1.03*"}, {"measurement": "ELISA absorbance at 492 nm", "setting": "[1]; sample 21 (TB−)", "result": 0.61}, {"measurement": "ELISA absorbance at 492 nm", "setting": "[1]; sample 22 (TB−)", "result": 0.66}, {"measurement": "ELISA absorbance at 492 nm", "setting": "[1]; sample 23 (TB−)", "result": "0.81*"}, {"measurement": "ELISA absorbance at 492 nm", "setting": "[1]; sample 24 (TB−)", "result": 0.62}, {"measurement": "ELISA absorbance at 492 nm", "setting": "[1]; sample 25 (TB−)", "result": 0.21}, {"measurement": "ELISA absorbance at 492 nm", "setting": "[1]; sample 26 (TB−)", "result": "0.72*"}, {"measurement": "ELISA absorbance at 492 nm", "setting": "[1]; sample 27 (TB−)", "result": 0.61}, {"measurement": "ELISA absorbance at 492 nm", "setting": "[1]; sample 28 (TB−)", "result": 0.38}, {"measurement": "ELISA absorbance at 492 nm", "setting": "[1]; sample 29 (TB−)", "result": 0.41}, {"measurement": "ELISA absorbance at 492 nm", "setting": "[1]; sample 30 (TB−)", "result": 0.39}, {"measurement": "ELISA absorbance at 492 nm", "setting": "[1]; sample 31 (TB−)", "result": 0.51}, {"measurement": "ELISA absorbance at 492 nm", "setting": "[1]; sample 32 (TB−)", "result": "0.91*"}, {"measurement": "ELISA absorbance at 492 nm", "setting": "[1]; sample 33 (TB−)", "result": 0.42}, {"measurement": "ELISA absorbance at 492 nm", "setting": "[1]; sample 34 (TB−)", "result": 0.49}, {"measurement": "ELISA absorbance at 492 nm", "setting": "[1]; sample 35 (TB−)", "result": 0.38}, {"measurement": "ELISA absorbance at 492 nm", "setting": "[1]; sample 36 (TB−)", "result": 0.28}, {"measurement": "ELISA absorbance at 492 nm", "setting": "[1]; sample 37 (TB−)", "result": 0.55}, {"measurement": "ELISA absorbance at 492 nm", "setting": "[1]; sample 38 (TB−)", "result": 0.52}, {"measurement": "ELISA absorbance at 492 nm", "setting": "[1]; sample 39 (TB−)", "result": 0.35}, {"measurement": "ELISA absorbance at 492 nm", "setting": "[1]; sample 40 (TB−)", "result": 0.35}, {"measurement": "ELISA absorbance at 492 nm", "setting": "[1]; sample 41 (TB−)", "result": 0.66}, {"measurement": "ELISA absorbance at 492 nm", "setting": "[1]; sample 42 (TB−)", "result": 0.55}, {"measurement": "ELISA absorbance at 492 nm", "setting": "[1]; sample 43 (TB−)", "result": 0.30}, {"measurement": "ELISA absorbance at 492 nm", "setting": "[1]; sample 44 (TB−)", "result": "0.98*"}, {"measurement": "ELISA absorbance at 492 nm", "setting": "[1]; sample 45 (TB−)", "result": 0.43}, {"measurement": "ELISA absorbance at 492 nm", "setting": "[1]; sample 46 (TB−)", "result": 0.31}, {"measurement": "ELISA absorbance at 492 nm", "setting": "[1]; sample 47 (TB−)", "result": 0.56}, {"measurement": "ELISA absorbance at 492 nm", "setting": "[1]; sample 48 (TB−)", "result": 0.32}, {"measurement": "ELISA absorbance at 492 nm", "setting": "[1]; sample 49 (TB−)", "result": 0.51}, {"measurement": "ELISA absorbance at 492 nm", "setting": "[1]; sample 50 (TB−)", "result": 0.37}, {"measurement": "ELISA absorbance at 492 nm", "setting": "[1]; sample 51 (TB−)", "result": 0.21}, {"measurement": "ELISA absorbance at 492 nm", "setting": "[1]; sample 52 (TB−)", "result": 0.36}, {"measurement": "ELISA absorbance at 492 nm", "setting": "[1]; sample 53 (TB−)", "result": 0.26}, {"measurement": "ELISA absorbance at 492 nm", "setting": "[1]; sample 54 (TB−)", "result": 0.27}, {"measurement": "ELISA absorbance at 492 nm", "setting": "[1]; sample 55 (TB−)", "result": 0.27}, {"measurement": "ELISA absorbance at 492 nm", "setting": "[1]; sample 56 (TB−)", "result": "0.73*"}, {"measurement": "ELISA absorbance at 492 nm", "setting": "[1]; sample 57 (TB−)", "result": 0.37}, {"measurement": "ELISA absorbance at 492 nm", "setting": "[1]; sample 58 (TB−)", "result": 0.41}, {"measurement": "ELISA absorbance at 492 nm", "setting": "[1]; sample 59 (TB−)", "result": 0.45}, {"measurement": "ELISA absorbance at 492 nm", "setting": "[1]; sample 60 (TB−)", "result": 0.44}, {"measurement": "ELISA absorbance at 492 nm", "setting": "[1]; sample 61 (TB−)", "result": 0.41}, {"measurement": "ELISA absorbance at 492 nm", "setting": "[1]; sample 62 (TB−)", "result": 0.30}, {"measurement": "ELISA absorbance at 492 nm", "setting": "[1]; sample 63 (TB−)", "result": 0.25}, {"measurement": "ELISA absorbance at 492 nm", "setting": "[1]; sample 64 (TB−)", "result": 0.29}]}]}
